From patent US6773912B1, “Lantibiotic” (University of Otago, priority 1999, dated 2004)

Columns and labels:
Format in all cases: cell-based
[1] = tested on: Streptococcus sobrinus; test: Agar surface assay, inhibitory spectrum; details: 4 tested; 20 ul drops of preparation of titre 16 Ua/ml; 37° C. for 18 h
Method: (§1) Salivaricin activity is titrated using an agar surface assay. Drops (20 ul) of two-fold saline dilutions of the sample are assayed against Microoccus luteus T-18 on Columbia agar base. The reciprocal of the highest dilution to produce a definite zone of inhibition of the growth of the indicator lawn is the titre in arbitrary units per ml (Au/ml) of salivaricin activity.
(§2) By contrast the partially purified preparation of salivaricin A2 of titre 16 when tested using under the same conditions killed less than 10% of strain FF22 cells. Further tests of the inhibitory spectra of partially purified salivaricin A2 and salivaricin B preparations were done by using the agar surface assay described above. Drops (20 ul) of a preparation of titre 16 Ua/ml were spotted onto lawn cultures of the test strains that had been freshly inoculated by swabbing the surface of a Columbia agar base plate with a 1/100 dilution in saline of an 18 h Todd Hewitt broth culture of that strain. Production of a definite zone of inhibited test strain growth upon incubation of these plates at 37° C. for 18 h was taken to indicate sensitivity of that strain to the salivaricin.

[2] = tested on: Stomatococcus mucilagenosus; test: Agar surface assay, inhibitory spectrum; details: 4 tested; 20 ul drops of preparation of titre 16 Ua/ml; 37° C. for 18 h
Method: as §1, §2

[3] = tested on: Staphylococcus aureus; test: Agar surface assay, inhibitory spectrum; details: 4 tested; 20 ul drops of preparation of titre 16 Ua/ml; 37° C. for 18 h
Method: as §1, §2

[4] = tested on: Lactobactillus casei; test: Agar surface assay, inhibitory spectrum; details: 2 tested; 20 ul drops of preparation of titre 16 Ua/ml; 37° C. for 18 h
Method: as §1, §2

[5] = tested on: Streptococcus pneumoniae; test: Agar surface assay, inhibitory spectrum; details: 4 tested; 20 ul drops of preparation of titre 16 Ua/ml; 37° C. for 18 h
Method: as §1, §2

[6] = tested on: Streptococcus pyogenes; test: Agar surface assay, inhibitory spectrum; details: 15 tested; 20 ul drops of preparation of titre 16 Ua/ml; 37° C. for 18 h
Method: as §1, §2

[7] = tested on: Corynebacterium diphtheriae; test: Agar surface assay, inhibitory spectrum; details: 4 tested; 20 ul drops of preparation of titre 16 Ua/ml; 37° C. for 18 h
Method: as §1, §2

[8] = tested on: Streptococcus mutans; test: Agar surface assay, inhibitory spectrum; details: 6 tested; 20 ul drops of preparation of titre 16 Ua/ml; 37° C. for 18 h
Method: as §1, §2

[9] = tested on: Escherichia coli; test: Agar surface assay, inhibitory spectrum; details: 2 tested; 20 ul drops of preparation of titre 16 Ua/ml; 37° C. for 18 h
Method: as §1, §2

[10] = tested on: Streptococcus equisimilis; test: Agar surface assay, inhibitory spectrum; details: 5 tested; 20 ul drops of preparation of titre 16 Ua/ml; 37° C. for 18 h
Method: as §1, §2

[11] = tested on: Streptococcus sanguis; test: Agar surface assay, inhibitory spectrum; details: 6 tested; 20 ul drops of preparation of titre 16 Ua/ml; 37° C. for 18 h
Method: as §1, §2

[12] = tested on: Streptococcus agalactiae; test: Agar surface assay, inhibitory spectrum; details: 5 tested; 20 ul drops of preparation of titre 16 Ua/ml; 37° C. for 18 h
Method: as §1, §2

[13] = tested on: Branhamella catarrhalis; test: Agar surface assay, inhibitory spectrum; details: 1 tested; 20 ul drops of preparation of titre 16 Ua/ml; 37° C. for 18 h
Method: as §1, §2

[14] = tested on: Streptococcus pyogenes strain FF22; test: Decrease in colony-forming units after mixing cells with salivaricin preparation; details: partially purified preparation of titre 16; 4 h at 37° C.; exponential Todd Hewitt broth culture cells
Method: The inhibitory activity of the salivaricins was determined by measurement of the decrease with time in the number of colony-forming units (CFU) of a suspension of the sensitive indicator streptococcus (Streptococcus pyogenes strain FF22) after mixing the cells with a salivaricin preparation. Twice-washed cells from an exponential Todd Hewitt broth culture of the indicator streptococcus were resuspended in 0.067 M phosphate buffer (pH 6.5) to the original culture volume. Portions of partially purified salivaricin (titre 16 Au/ml) or of phosphate buffer (control) were then mixed with an equal volume of the washed cell suspension and incubation was continued at 37° C. Survivors were determined at intervals by plating suitable 10-fold dilutions (in cold Todd Hewitt broth) of the test and control mixtures on Columbia agar base and incubating at 37° C. for 24 h. Viable counts were expressed as the total number of CFU per ml.

salivaricin A2: BLIS co-expressed by S. salivarius K12 and K30, related but not identical to salivaricin A; sequence in FIG. 3 (KRGTGWFATITDDCPNSVFVCC; listed as Streptococcus salivarius)
Number of strains sensitive [1]: 0
Number of strains sensitive [2]: 0
Number of strains sensitive [3]: 0
Number of strains sensitive [4]: 1
Number of strains sensitive [5]: 1
Number of strains sensitive [6]: 15
Number of strains sensitive [7]: 0
Number of strains sensitive [8]: 0
Number of strains sensitive [9]: 0
Number of strains sensitive [10]: 5
Number of strains sensitive [11]: 0
Number of strains sensitive [12]: 0
Number of strains sensitive [13]: 0
CFU killed [14]: less than 10%
